This assay deals with L1210. As to the kind of experiment: Antiproliferative activity using the murine L1210 leukemia cell line. In kind it is functional, cell-based. Particulars: Mus musculus.
The IC50 is the point on the concentration scale where inhibition reaches its midpoint. A higher IC50 goes with weaker potency in that assay. `Cn1cc(C(=O)NCCN2CCOCC2)c2c1C(=O)C=CC2=O` came in with an IC50 of 6.5 µM. This lies in the single-digit micromolar range.

As for `COc1ccc(OC)c2c1c(-c1nc(C(N)=O)cs1)cn2C`, the IC50 was over 10 µM. Compound `COc1ccc(OC)c2c1c(C(=O)NCCN1CCOCC1)cn2C` had an IC50 of over 100 µM. In the case of `Cn1cc(-c2nc(C(N)=O)cs2)c2c1C(=O)C=CC2=O` it was 0.8 µM.

The values are drawn from ChEMBL document CHEMBL1131798, “Synthesis and cytotoxicity of analogues of the antibiotic BE 10988 inhibitors of DNA topoisomerase II” (Bioorg Med Chem Lett, 1999).
